Experimental data reported in PMC10385664, “Projection of Target Drug Particle Size in Oral Formulations Using the Refined Developability Classification System (rDCS)” (Pharmaceutics, 2023).

Experiments:
[1] = Caco-2 permeability assay (pH 6.5/7.4 gradient, ± elacridar); details: human; for recovery at 120 min, 10 µM: Caco-2
Protocol: (§1) In vitro permeability studies were performed at Cyprotex Discovery Ltd. (Macclesfield, UK) using a high-throughput Caco-2 permeability assay. Permeability at 37 °C was assessed from the apical to basolateral side (A⟹B) and in opposite direction (B⟹A) applying a pH gradient with pH 6.5 in the apical and pH 7.4 in the basolateral compartment (Hanks Balanced Salt Solution, HBSS). After an incubation of 120 min, samples were diluted for analysis via liquid chromatography coupled with tandem mass spectrometry (LC-MS/MS). […] Experiments were performed in absence and presence of the P-glycoprotein (P-gp) inhibitor elacridar (10 µM) to study transporter-mediated efflux effects. The dosing solutions contained the API (10 µM) in HBSS, and DMSO in a concentration of ≤1% v/v. Lucifer yellow (100 µM) was included as fluorescent integrity marker. Further experimental details are provided in Supplementary Materials.
(§2) The apparent permeability coefficients (Papp) were calculated according to Equation (27):(27) Papp=dQ/dt/C0·A where dQ/dt is the permeation rate of the API across the cell monolayer, C0 is the starting concentration of the API in the dosing solution and A is the surface area of the cell monolayer. The efflux ratios (ERs) were calculated from the B⟹A and A⟹B Papp values to estimate whether P-gp mediated efflux was involved in the transport of the APIs. The mass balance (% recovery) was calculated from the sum of the API recovered from the acceptor and donor compartments at the end of the experiment, divided by the initial donor amount.
(§3) Table S6. Gradient of the UPLC method for analysis of lemborexant.
(§4) Table S7. Gradient of the UPLC method for analysis of istradefylline.
(§5) S.2.5. rDCS Standard Investigations: Caco‐2 permeability studies
(§6) Caco‐2 cells were obtained from the American Type Culture Collection (ATCC, Manassas, VA, USA) and used between passage numbers 40 to 60. The cells were seeded onto Millipore Multiscreen Transwell plates at a density of 1 x 10^5 cells/cm2 and cultured in Dulbeccoʹs Modified Eagleʹs Medium (DMEM). The medium was changed every two or three days. Ce l l culture was carried out at 37 °C in an atmosphere of 5 % CO2 with a relative humidity of 95 %. The permeability assay was performed on day 20.
(§7) In vitro permeability was assessed wit h a high‐throughput Caco‐2 permeability assay. The assay was prepared by rinsing apical and basolateral monolayer surfaces twice with Hanks Balanced Salt Solution (HBSS) at the desired pH and 37 °C. Subsequently, cells in the apical and basolateral compartments were incubated with HBSS at the desired pH for 40 min. A pH gradient with pH 6.5 in the apical compartment and pH 7.4 in the basolateral compartment was applied. Dosing solutions containing the API (10 μ M) were prepared by diluting a concentrated API solution in DMS O with HBSS. The final DMSO concentration was ≤ 1% v/v. Lucifer yellow (100 μM) was included in the dosing solution as fluorescent integrity marker. For the assessment of the permeability from the apical to basolateral side (A⟹B), HBSS in the apical compartment was replaced with the dosing solution. The apical inserts were placed into a companion plat e containing fresh buffer with 1% v/ v DMSO. For the assessment of the permeability from the basolateral to […]
(§8) apical side (B⟹A), HBSS was removed from the companion plate and replaced with the solution of drug in HBSS. Fresh HBSS was added to the apical insert, which was then placed into the companion plate.
(§9) Experiments were performed in absence and presence of the P‐glycoprotein (P‐gp) inhibitor elacridar (10 μM) to study transporter‐mediated efflux effects. In those experiments, elacridar was included in both compartments during the equilibration time and assay. The starting concentration (C0) was confirmed by sampling from the dosing solution immediately before dosing into the cell pl ates. After incubation of 120 minutes, the apical inserts and companion plates were separated for sampling from both compartments.

P-gp = experiment: as above; details: human, Caco-2, with P-gp inhibitor elacridar 10 µM
Protocol: as §1, §2, §3, §4, §5, §6, §7, §8, §9

[2] = Caco-2, Papp(A⟹B), Caco-2, 10 µM, apical pH 6.5 / basolateral pH 7.4, 120 min, without inhibitor
[3] = Caco-2, Papp(B⟹A), Caco-2, without inhibitor
[4] = Caco-2, with elacridar 10 µM, Papp(A⟹B) + inhibitor
[5] = Caco-2, with elacridar 10 µM, Papp(B⟹A) + inhibitor

Structure (SMILES)	recovery at 120 min, 10 µM [1] [%]	Papp at 120 min, 10 µM [1, 2] [×10⁻⁶ cm/s]	Papp at 120 min, 10 µM [1, 3] [×10⁻⁶ cm/s]	Papp at 120 min, 10 µM (P-gp; Caco-2, Papp(A⟹B) + inhibitor) [×10⁻⁶ cm/s]	Papp at 120 min, 10 µM (P-gp; Caco-2, Papp(B⟹A) + inhibitor) [×10⁻⁶ cm/s]	Papp at 120 min, 10 µM (P-gp; [4]) [×10⁻⁶ cm/s]	Papp at 120 min, 10 µM (P-gp; [5]) [×10⁻⁶ cm/s]
Cc1ncc(OC[C@@]2(c3cccc(F)c3)C[C@H]2C(=O)Nc2ccc(F)cn2)c(C)n1 [Lemborexant, lemborexant]	> 74	26.7 ± 1.2	41.8 ± 1.2	24.2 ± 0.7	39 ± 0.4		
C[C@@H](c1ncncc1F)[C@](O)(Cn1cncn1)c1ccc(F)cc1F [Voriconazole, voriconazole]	> 87	27.3 ± 1.7	43.5 ± 0.9			24 ± 1	40.4 ± 1.1
CCn1c(=O)c2c(nc(/C=C/c3ccc(OC)c(OC)c3)n2C)n(CC)c1=O [Istradefylline, istradefylline]	> 85	30.2 ± 1.2	28.3 ± 16			31.2 ± 1.1	43.7 ± 18.5
